Laboratory results: patent US8445522B2, “Substituted 2-(4-pyridyl)benzoxazoles, and compositions thereof, for use in arthropod pest control” (Sumitomo Chemical Company, Limited, priority 2009, dated 2013)

How the values were obtained:
Assay type in all cases: in vivo
[1] = system: cotton aphids (Aphis gossypii Glover); experiment: Test Example 1: test diluent scattered on cucumber seedling inoculated with cotton aphids; details: 120 h, 500 ppm active ingredient, 10 ml scattered on cucumber seedling, counted five days after scattering, read-out: Control value
Method: The formulations were diluted with water so that the concentration of the active ingredient became 500 ppm and thus test diluents were prepared. On the other hand, a cucumber seedling (second true leaf development stage) planted in a plastic cup was inoculated with about 30 cotton aphids (Aphis gossypii Glover) and allowed to stand for one day. To the seedling, any one of the diluents (10 ml) was scattered. Five days after the scattering, the number of survived cotton aphids parasitic on the cucumber leaves was counted, and the control value was calculated by the following equation. Control value(%)={1−(Cb×Tai)/(Cai×Tb)}×100 wherein each character represents the following meaning: Cb: the number of insects in non-treated section before treatment Cai: the number of insects in non-treated section during observation Tb: the number of insects in treated section before treatment Tai: the number of insects in treated section during observation

cotton aphids = experiment: Test Example 2: plant foot irrigation of cucumber seedling in urethane mat, cotton aphids inoculated one day after treatment; details: 168 h; 500 ppm, 5 ml plant foot irrigation, urethane mat; aphids inoculated one day after treatment, counted seven days after; read-out: Control value
Method: The formulations were diluted with water so that the concentration of the active ingredient became 500 ppm and thus test diluents were prepared. On the other hand, a plant foot of cucumber seedling (second true leaf development stage) planted in a urethane mat was irrigated with any one of diluents (5 ml). One day after the treatment, the cucumber leaves were inoculated with 30 cotton aphids (all stages). Further seven days after, the number of survived cotton aphids parasitic on the cucumber leaves was counted, and the control value was calculated by the following equation. Control value(%)={1−(Cb×Tai)/(Cai×Tb)}×100 wherein each character represents the following meaning: Cb: number of insects in non-treated section before treatment Cai: number of insects in non-treated section during observation Tb: number of insects in treated section before treatment Tai: number of insects in treated section during observation

tobacco whitefly = experiment: Test Example 4: test diluent scattered on tomato seedling with hatched tobacco whitefly larvae; details: 168 h; 500 ppm, 10 ml/cup scattered on tomato seedling at larvae stage, counted after seven days at 25° C.; read-out: Control value
Method: The formulations were diluted with water so that the concentration of the active ingredient became 500 ppm and thus test diluents were prepared. On the other hand, by releasing tobacco whitefly imagos to a tomato seedling planted in a plastic cup to allow them to lay eggs for about 24 hours. The tomato seedling was kept in a green house for eight days. At the stage in which larvae hatched from the laid eggs, any of the test diluents was scattered at the rate of 10 ml/cup. The tomato seedling was kept in the greenhouse at 25° C. for seven days. The number of survived larvae on tomato leaves was counted, and the control value was calculated by the following equation. Control value(%)={1−(Cb×Tai)/(Cai×Tb)}×100 wherein each character represents the following meaning: Cb: number of insects in non-treated section before treatment Cai: number of insects in non-treated section during observation Tb: number of insects in treated section before treatment Tai: number of insects in treated section during observation

rice brown planthopper = experiment: Test Example 6: plant foot irrigation of rice plant seedling, rice brown planthopper released after seven days; details: Nilaparvata lugens, 144 h; 500 ppm, 5 ml plant foot irrigation of rice seedling; first-instars released after seven days, counted six days after; read-out: Control value
Method: The formulations were diluted with water so that the concentration of the active ingredient became 500 ppm and thus test diluents were prepared. On the other hand, a plant foot of rice plant seedling (two weeks after seeding, second leaf development stage) planted in a plastic cup was irrigated with any one of diluents (5 ml). The seedling was kept in a green house of 25° C. for seven days. Thirty first-instars of rice brown planthopper were released to the seedling, which was kept in the green house at 25 C for six days. Thereafter, the number of survived rice brown planthopper parasitic on rice plant leaves was counted, and the control value was calculated by the following equation. Control value(%)={1−(Cb×Tai)/(Cai×Tb)}×100 wherein each character represents the following meaning: Cb: number of insects in non-treated section before treatment Cai: number of insects in non-treated section during observation Tb: number of insects in treated section before treatment Tai: number of insects in treated section during observation

FC(F)Oc1cnccc1-c1nc2cc(C(F)(F)F)ccc2o1 [active compound 126, 2-(3-difluoromethoxypyridin-4-yl)-5-(trifluoromethyl)benzoxazole]
pest or weed control at 500 ppm [1]: ≥ 90%
pest or weed control at 500 ppm (cotton aphids): ≥ 90%
pest or weed control at 500 ppm (tobacco whitefly): ≥ 90%
pest or weed control at 500 ppm (rice brown planthopper): ≥ 90%

FC(F)(F)c1ccc2oc(-c3ccncc3N3CCOCC3)nc2c1 [active compound 55, 2-[3-(morpholin-4-yl)pyridin-4-yl]-5-(trifluoromethyl)benzoxazole]
pest or weed control at 500 ppm (cotton aphids): ≥ 90%

COCCOc1cnccc1-c1nc2cc(C(F)(F)F)ccc2o1 [active compound 120, 2-[3-(2-methoxyethoxy)pyridin-4-yl]-5-(trifluoromethyl)benzoxazole]
pest or weed control at 500 ppm (cotton aphids): ≥ 90%

CC(Oc1cnccc1-c1nc2cc(C(F)(F)F)ccc2o1)C(F)(F)F (centres unmarked) [active compound 111, 2-[3-(1-methyl-2,2,2-trifluoroethoxy)pyridin-4-yl]-5-(trifluoromethyl)benzoxazole]
pest or weed control at 500 ppm [1]: ≥ 90%
pest or weed control at 500 ppm (tobacco whitefly): ≥ 90%
pest or weed control at 500 ppm (rice brown planthopper): ≥ 90%

FC(F)(F)c1ccc2oc(-c3ccncc3N3CCCC3)nc2c1 [active compound 53, 2-[3-(pyrrolidine-1-yl)pyridin-4-yl]-5-(trifluoromethyl)benzoxazole]
pest or weed control at 500 ppm (tobacco whitefly): ≥ 90%

Fc1cc2oc(-c3ccncc3Cl)nc2cc1C(F)(F)F [active compound 94]
pest or weed control at 500 ppm (cotton aphids): ≥ 90%

FC(F)(F)c1ccc2oc(-c3ccncc3-c3cccnc3)nc2c1 [active compound 128, 4-(5-trifluoromethyl-benzoxazole-2-yl)-[3,3′]bipyridinyl]
pest or weed control at 500 ppm (cotton aphids): ≥ 90%

CC(C)Oc1cnccc1-c1nc2cc(C(C)(C)C)ccc2o1 [active compound 104, 5-tert-butyl-2-(3-isopropoxypyridin-4-yl)benzoxazole]
pest or weed control at 500 ppm [1]: ≥ 90%
pest or weed control at 500 ppm (tobacco whitefly): ≥ 90%

CCc1cnccc1-c1nc2cc(C(F)(F)F)c(Cl)cc2o1 [active compound 93, 6-chloro-2-(3-ethylpyridin-4-yl)-5-(trifluoromethyl)benzoxazole]
pest or weed control at 500 ppm (cotton aphids): ≥ 90%
pest or weed control at 500 ppm (rice brown planthopper): ≥ 90%

FC(F)(F)COc1cnccc1-c1nc2cc(C(F)(F)F)c(Cl)cc2o1 [active compound 92, 6-chloro-2-[3-(2,2,2-trifluoroethoxy)pyridin-4-yl]-5-(trifluoromethyl)benzoxazole]
pest or weed control at 500 ppm (rice brown planthopper): ≥ 90%

CCSc1cnccc1-c1nc2cc(C(F)(F)F)ccc2o1 [active compound 41, 2-(3-ethylthiopyridin-4-yl)-5-(trifluoromethyl)benzoxazole]
pest or weed control at 500 ppm (rice brown planthopper): ≥ 90%

FC(F)(F)c1ccc2nc(-c3ccncc3Cl)oc2n1 [Active Compound 154, 2-(3-chloropyridin-4-yl)-5-(trifluoromethyl)oxazolo[5,4-b]pyridine]
pest or weed control at 500 ppm (tobacco whitefly): ≥ 90%

Nc1cnccc1-c1nc2cc(C(F)(F)F)ccc2o1 [active compound 52, 2-(3-aminopyridin-4-yl)-5-(trifluoromethyl)benzoxazole]
pest or weed control at 500 ppm (tobacco whitefly): ≥ 90%

FC(F)(F)c1ccc2oc(-c3ccncc3OC3CCCC3)nc2c1 [active compound 115, 2-(3-cyclopentyloxypyridin-4-yl)-5-(trifluoromethyl)benzoxazole]
pest or weed control at 500 ppm [1]: ≥ 90%

CCC(C)Oc1cnccc1-c1nc2cc(C(F)(F)F)ccc2o1 (centres unmarked) [active compound 119, 2-(3-sec-butoxypyridin-4-yl)-5-(trifluoromethyl)benzoxazole]
pest or weed control at 500 ppm (cotton aphids): ≥ 90%

FC(F)COc1cnccc1-c1nc2cc(C(F)(F)F)ccc2o1 [active compound 110, 2-[3-(2,2-difluoroethoxy)pyridin-4-yl]-5-(trifluoromethyl)benzoxazole]
pest or weed control at 500 ppm [1]: ≥ 90%
pest or weed control at 500 ppm (cotton aphids): ≥ 90%
pest or weed control at 500 ppm (tobacco whitefly): ≥ 90%
pest or weed control at 500 ppm (rice brown planthopper): ≥ 90%

CCc1cnccc1-c1nc2cc(C(C)(C)C)ccc2o1 [active compound 105, 5-tert-butyl-2-(3-ethylpyridin-4-yl)benzoxazole]
pest or weed control at 500 ppm [1]: ≥ 90%
pest or weed control at 500 ppm (tobacco whitefly): ≥ 90%

CC(C)(C)c1ccc2oc(-c3ccncc3)nc2c1 [active compound 6, 5-tert-butyl-2-(pyridin-4-yl)-benzoxazole]
pest or weed control at 500 ppm [1]: ≥ 90%
pest or weed control at 500 ppm (tobacco whitefly): ≥ 90%

CCc1ccc2oc(-c3ccncc3)nc2c1 [active compound 3, 5-ethyl-2-(pyridin-4-yl)-benzoxazole]
pest or weed control at 500 ppm (tobacco whitefly): ≥ 90%

CC(C)(C)c1ccc2oc(-c3ccncc3OCC(F)(F)F)nc2c1 [active compound 101, 5-tert-butyl-2-[3-(2,2,2-trifluoroethoxy)pyridin-4-yl]benzoxazole]
pest or weed control at 500 ppm [1]: ≥ 90%
pest or weed control at 500 ppm (tobacco whitefly): ≥ 90%
pest or weed control at 500 ppm (rice brown planthopper): ≥ 90%

FC(F)(F)Sc1ccc2oc(-c3ccncc3)nc2c1 [active compound 76, 2-(pyridin-4-yl)-5-(trifluoromethylthio)benzoxazole]
pest or weed control at 500 ppm (cotton aphids): ≥ 90%

COc1cnccc1-c1nc2cc(C(C)(C)C)ccc2o1 [active compound 100, 5-tert-butyl-2-(3-methoxypyridin-4-yl)benzoxazole]
pest or weed control at 500 ppm [1]: ≥ 90%
pest or weed control at 500 ppm (tobacco whitefly): ≥ 90%
pest or weed control at 500 ppm (rice brown planthopper): ≥ 90%

FC(F)(F)c1ccc2oc(-c3ccncc3-n3ccnc3)nc2c1 [active compound 56, 2-[3-(imidazole-1-yl)pyridin-4-yl]-5-(trifluoromethyl)benzoxazole]
pest or weed control at 500 ppm (cotton aphids): ≥ 90%

FC(F)(F)c1ccc2oc(-c3ccncc3OCC(F)(F)C(F)(F)F)nc2c1 [active compound 75, 2-[3-(2,2,3,3,3-pentafluoropropoxy)pyridin-4-yl]-5-(trifluoromethyl)benzoxazole]
pest or weed control at 500 ppm (rice brown planthopper): ≥ 90%

FC(F)(F)c1ccc2oc(-c3ccncc3I)nc2c1 [active compound 29, 2-(3-iodopyridin-4-yl)-5-(trifluoromethyl)benzoxazole]
pest or weed control at 500 ppm (cotton aphids): ≥ 90%

CC(C)COc1cnccc1-c1nc2cc(C(F)(F)F)ccc2o1 [active compound 116, 2-(3-isobutoxypyridin-4-yl)-5-(trifluoromethyl)benzoxazole]
pest or weed control at 500 ppm [1]: ≥ 90%

CN(C)c1cnccc1-c1nc2cc(C(F)(F)F)ccc2o1 [active compound 131, dimethyl-{4-[5-(trifluoromethyl)benzoxazole-2-yl]pyridin-3-yl}amine]
pest or weed control at 500 ppm (cotton aphids): ≥ 90%

FC(F)(F)c1ccc2nc(-c3ccncc3)oc2n1 [Active Compound 153, 2-(pyridin-4-yl)-5-(trifluoromethyl)oxazolo[5,4-b]pyridine]
pest or weed control at 500 ppm (tobacco whitefly): ≥ 90%

FC(F)(F)COc1cnccc1-c1nc2cc(C(F)(F)F)ccc2o1 [active compound 39, 2-[3-(2,2,2-trifluoroethyl)oxypyridin-4-yl]-5-(trifluoromethyl)benzoxazole]
pest or weed control at 500 ppm (rice brown planthopper): ≥ 90%

CC(C)c1ccc2oc(-c3ccncc3)nc2c1 [active compound 5, 5-isopropyl-2-(pyridin-4-yl)-benzoxazole]
pest or weed control at 500 ppm [1]: ≥ 90%
pest or weed control at 500 ppm (tobacco whitefly): ≥ 90%
